According to US11236102B2, “Oxabicycloheptane prodrugs” (Lixte Biotechnology, Inc., priority 2015, dated 2022):
Values joined by “and” are separate entries in the source; they are usually repeats but may differ in a detail not shown here. Identical values can stand only once. “Also recorded” adds a separate entry of the source.

Assays:
[1] = Whole blood stability (half-life) and metabolite formation; type: in vitro ADME, rat, dog, monkey and human; settings: for metabolism in whole blood metabolite study: rat, dog
Method: (§1) The stability (whole blood, liver S9, SGF, SIF, and PBS buffer) and MDCK-MDR1 monolayer permeability of LB100, LB-100 Carbonate and LB-100 POM were evaluated.
(§2) Samples were analyzed by LC-MS/MS using a SCIEX QTrap 5500 mass spectrometer coupled with an Agilent 1290 HPLC Infinity series, a CTC PAL chilled autosampler, all controlled by Analyst software. After separation on a C18 reverse phase HPLC column (Acquity UPLC HSS T3, 1.8, 2.1×50 mm) using an acetonitrile-water gradient system, peaks were analyzed by mass spectrometry (MS) using […] ionization in MRM mode.
Whole Blood Stability: Experimental Conditions Experimental Procedure: The stock solution was first diluted in acetonitrile at a concentration that is 100× of the desired final concentration. It was incubated in duplicate with whole blood at 37° C. At indicated times, an aliquot was removed from each experimental and control reaction and mixed with three volumes of ice-cold Stop Solution (methanol containing propranolol as internal standard). Stopped reactions were incubated at least ten minutes at −20° C. The samples were centrifuged to remove precipitated protein, and the supernatants were analyzed by LC-MS/MS to quantitate the remaining parent and the formation of metabolites.
Data were converted to % remaining by dividing by the time zero concentration value. Data were fit to a first-order decay model to determine half-life.

[2] = fostriecin iv daily for 5 days, phase I trials; cited from earlier work
[3] = Liver S9 stability and metabolite formation; type: in vitro ADME, rat, dog, monkey and human; settings: presence and absence of NADPH, cross species
Method: as §1, §2
Experimental Procedure: Test agent is incubated in duplicate with liver S9 at 37° C. The reaction contains liver S9 protein in 100 mM potassium phosphate, 2 mM NADPH, 3 mM MgCl2, pH 7.4. A control is run for each test agent omitting NADPH to detect NADPH-free degradation. At indicated times, an aliquot is removed from each experimental and control reaction and mixed with an equal volume of ice-cold Stop Solution (methanol, containing internal standard propranolol). Stopped reactions are incubated for 10 minutes at −20° C. Samples are centrifuged to remove precipitated protein, and supernatants are analyzed by LC/MS/MS to quantitate remaining parent and the formation of metabolites. Data are reported as % remaining by dividing by the time zero concentration value.

[4] = Pharmacokinetic study of 157 (iv, po) in SD rats: 157 and endothal in plasma, liver, brain; type: in vivo
Method: The blood, liver and brain tissue samples were collected at predetermined times from rats. […] Compound were diluted shortly before use in 4% sodium bicarbonate for sterile injection (this is the standard pediatric solution of NaHCO3 with a pH of about 8.5).
Compound 153 was freshly prepared by diluting the drugs shortly before use in 4% sodium bicarbonate for sterile injection (this is the standard pediatric solution of NaHCO3 with a pH of about 8.5). The final concentrations of 153 solutions were 0.25 mg/mL. The 153 solutions were administered via iv or po route at dose volume of 5 ml/kg according to the latest body weight. Compound 157 was freshly prepared by diluting the drugs shortly before use in 4% sodium bicarbonate for sterile injection (this is the standard pediatric solution of NaHCO3 with a pH of about 8.5). […] The 157 solutions were administered via iv or po route at dose volume of 5 ml/kg according to the latest body weight.
Twelve (12) female SD rats per group were dosed by iv with 153 or 157. The rats were fasted overnight prior to dosing, with free access to water. Foods were withheld for 2 hours post-dose. Blood, liver and brain tissue samples in two animals each group were collected at each time point, within 10% of the scheduled time for each time point. Two extra animals were used for analytic method development.
Blood (>0.3 mL) were collected via aorta abdominalis in anaesthetic animals into tubes containing heparin at 15 min, 1, 2, 6, 10 and 24 hours after iv administration. Liver and brain tissues were collected immediately after animal death. The liver and brain tissues were excised and rinsed with cold saline to avoid blood residual. Upon collection, each sample was placed on ice and the blood samples were subsequently centrifuged (4° C., 11000 rpm, 5 min) to separate plasma.
The obtained plasma, liver and brain tissue samples were stored at −70° C. until LC-MS/MS analysis.
Two (2) female SD rats per group were dosed by po with 153 or 157. The rats were fasted overnight prior to dosing, with free access to water. Foods were withheld for 2 hours post-dose. Blood samples (>0.3 mL) were collected via aorta abdominalis in anaesthetic animals into tubes containing heparin at 30 min, 1, 2, 6, 10 and 24 hours after po administration.
To each sample, 30 μL IS-D (for blank samples, 20 μL acetonitrile:water (1:1) was added) and 300 ul acetonitrile was added. The sample mixture was vortexed for approximately 3 min. After centrifugation at 10000 rpm for 5 min at 4° C., 100 μL of the upper layer was transferred to a new tube and added 200 μL 0.4% formic acid in water (pH6.0). The mixture was vortexed for approximately 3 min before injected onto the LC/MS/MS system for analysis.
On the day of the assay, the frozen liver and brain samples were thawed unassisted at room temperature. An about 200 mg weighed sample of each thawed tissue was placed into a plastic tube with water (0.6 mL) to facilitate homogenization. Tissue processing was conducted using a homogenizer for approximately 1 min, […] homogenate was transferred into a fresh Eppendorf tube. To each tube, 50 μL IS-D was added and mixed. Then 500 ul acetonitrile was added and the sample mixture was vortexed for approximately 3 min. After centrifugation at 10000 rpm for 5 min at 4° C., 100 μL of the upper layer was transferred to a new tube and evaporate the supernatant to dryness at 35° C. Reconstitute the residue with 200 μL of 0.4% formic acid in water (pH 6.0), and vortex for 3 min, submit for LC-MS/MS analysis.
Frozen unknown plasma samples were completely thawed at room temperature and vortexed thoroughly. With a pipette, 50 μL of plasma was transferred into a 2.0 mL Eppendorf tube. 50 μL of 0.1N HCl and 800 μL ethyl acetate were added into each sample. The sample mixture was vortexed for approximately 3 min.

[5] = in vivo; settings: rat, 1.4 mg/kg
Method: 113 was dissolved in 4% NaHCO3 in saline for IV administration. The detailed procedure of dosing solution preparation was presented in Appendix I.
15 animals were placed on the study. The animals in IV arm were free access to food and water. For PO dose group, the animals were fasted overnight prior to dosing and the food was resumed 4 hours postdose.
The IV injection was conducted via foot dorsal vein. PO via oral gavage.
Blood collection: The animal is restrained manually. Approximately 200 μL of blood/time point is collected into sodium heparin tube via cardiac puncture for terminal bleeding (anesthetized under carbon dioxide). Blood sample will be put on ice and centrifuged to obtain plasma sample (2000 g, 5 min under 4° C.) within 10 minutes.
Liver collection: The animal will be euthanized with carbon dioxide inhalation. Open abdominal cavity with scissor to expose internal organs. Hold the carcass in an upright position and allow the organs to fall forward. Cut the connective tissues and remove the organs. Then the organs are rinsed with cold saline, dried on filtrate paper, placed into a screw-top tube and weighed, snap frozen by placing into dry-ice immediately.
Brain collection: Make a mid-line incision in the animals scalp and retract the skin. Using small bone cutters and rongeurs, remove the skull overlying the brain. Remove the brain using a spatula and rinse with cold saline, dried on filtrate paper, placed into a screw-top tube and weighed, snap frozen by placing into dry-ice immediately. […] Plasma, brain and liver samples were stored at approximately −80° C. until analysis. The backup samples will be discarded after three weeks after in-life completion unless requested. The unused dosing solutions will be discarded within three weeks after completion of the study.
Pharmacokinetic Analysis Software: The PK parameters were determined by non-compartmental model of non-compartmental analysis tool, Pharsight Phoenix WinNonlin® 6.2 software. […] Concentration data within 80%-120% of LLOQ was considered within normal instrumental variation and presented in the results. Terminal t1/2 calculation: Time points were automatic selected by “best fit” model for terminal half life estimation as the first option. Manual selection was applied when “best fit” could not well define the terminal phase. Results

[6] = iv 1.5 mg/kg, 0.25 hr, individual rats, 1.5 mg/kg
[7] = iv 1.5 mg/kg, 1 hr, individual rats, 1.5 mg/kg
[8] = iv 1.5 mg/kg, 2 hr, individual rats, 1.5 mg/kg
[9] = iv administration of 157 at 1.5 mg/kg
[10] = plasma, 157 1.5 mg/kg IV, individual rats, 1.5 mg/kg
[11] = plasma, 157 1.5 mg/kg PO, individual rats, 1.5 mg/kg

Structure (SMILES): CCOC(=O)OCOC(=O)[C@H]1[C@@H](C(=O)N2CCN(C)CC2)[C@@H]2CC[C@H]1O2 [LB-100 Carbonate]
- metabolite formation in whole blood half-life study ([1]; blood): formation of endothall and LB-100 were observed
- metabolism in whole blood metabolite study ([1]; monkey, human): metabolized to endothall and LB-100

Structure (SMILES): C[C@@](O)(/C=C/[C@H]1CC=CC(=O)O1)[C@@H](C[C@@H](O)\C=C/C=C\C=C\CO)OP(=O)(O)O [fostriecin]
- dose limiting toxicity [2]: Dose limiting toxicity was not achieved
- major toxicities [2]: reversible non-cumulative increases in serum creatinine and hepatic enzymes

Structure (SMILES): CN1CCN(C(=O)C2C3CCC(O3)C2C(=O)OCOC(=O)C(C)(C)C)CC1 (stereo not shown) [LB-100 POM Ester]
- metabolites observed in liver S9 stability study [3]: metabolites LB-100 and endothall were observed
- metabolite formation in whole blood half-life study ([1]; cross species): formation of endothall and LB-100 were observed
- metabolism in whole blood metabolite study ([1]; monkey and human): metabolized to endothall and LB-100

Structure (SMILES): CCCCCCCOC(=O)C1C2CCC(O2)C1C(=O)N1CCN(C)CC1 (stereo not shown) [Compound 157]
- metabolism to endothal in vivo ([4]; 157 administered to rats): metablozied to endothal in vivo; also recorded: converted to endothal in the plasma
- oral availability ([4]; 157 at 1.5 mg/kg po to SD rats): poorly orally available
- 157 plasma concentration ([4]; PO 1.5 mg/kg, 0.5 hr, individual rats, 1.5 mg/kg): 5.92 ng/mL and 6.35 ng/mL
- 157 plasma concentration ([4]; PO 1.5 mg/kg, 0.5 hr, mean): 6.14 ng/mL
- 157 plasma concentration ([4]; PO 1.5 mg/kg, 1 hr, individual rats, 1.5 mg/kg): 1.48 ng/mL and 1.26 ng/mL
- 157 plasma concentration ([4]; PO 1.5 mg/kg, 1 hr, mean): 1.37 ng/mL
- 157 plasma concentration ([4]; PO 1.5 mg/kg, 2 hr, individual rats, 1.5 mg/kg): 0.303 ng/mL and 0.194 ng/mL
- 157 plasma concentration ([4]; PO 1.5 mg/kg, 2 hr, mean): 0.249 ng/mL
- bioavailability ([4]; female, Sprague-Dawley, rat, in vivo, 157 1.5 mg/kg PO vs IV, mean, read-out: F (bioavailability, BA)): 6.78%
- 157 brain concentration ([4]; iv 1.5 mg/kg, 0.25 hr, individual rats): 60.0 ng/g
- 157 liver concentration [4, 6]: 337 ng/g and 257 ng/g
- 157 plasma concentration [4, 6]: 116 ng/mL and 114 ng/mL
- 157 brain concentration ([4]; iv 1.5 mg/kg, 0.25 hr, mean): 60.0 ng/g
- 157 liver concentration ([4]; iv 1.5 mg/kg, 0.25 hr, mean): 297 ng/g
- 157 plasma concentration ([4]; iv 1.5 mg/kg, 0.25 hr, mean): 115 ng/mL
- 157 brain concentration [4, 7]: 1.99 ng/g and 2.80 ng/g
- 157 liver concentration [4, 7]: 29.4 ng/g and 17.6 ng/g
- 157 plasma concentration [4, 7]: 2.67 ng/mL and 3.57 ng/mL
- 157 brain concentration ([4]; iv 1.5 mg/kg, 1 hr, mean): 2.40 ng/g
- 157 liver concentration ([4]; iv 1.5 mg/kg, 1 hr, mean): 23.5 ng/g
- 157 plasma concentration ([4]; iv 1.5 mg/kg, 1 hr, mean): 3.12 ng/mL
- 157 brain concentration ([4]; iv 1.5 mg/kg, 2 hr, individual rats): BLQ
- 157 liver concentration [4, 8]: 6.40 ng/g and 9.72 ng/g
- 157 plasma concentration [4, 8]: 0.491 ng/mL and 0.556 ng/mL
- 157 liver concentration ([4]; iv 1.5 mg/kg, 2 hr, mean): 8.06 ng/g
- 157 plasma concentration ([4]; iv 1.5 mg/kg, 2 hr, mean): 0.524 ng/mL
- 157 liver concentration ([4]; iv 1.5 mg/kg, 10 hr, individual rats): BLQ
- AUClast in brain [4, 9]: 24.6 ng·h/g
- AUClast in liver [4, 9]: 152 ng·h/g
- AUC [4, 10]: 47.3 ng·h/mL
- AUC0-∞ [4, 10]: 47.3 ng·h/mL
- Cmax [4, 10]: 116 ng/mL and 114 ng/mL
- AUC ([4]; plasma, 157 1.5 mg/kg IV, mean): 47.2 ng·h/mL
- AUC0-∞ ([4]; plasma, 157 1.5 mg/kg IV, mean): 47.2 ng·h/mL
- AUC [4, 11]: 3 ng·h/mL
- AUC0-∞ [4, 11]: 3 ng·h/mL

Structure (SMILES): CN1CCN(C(=O)C2C(C(=O)OCC(Cl)(Cl)Cl)[C@H]3CC[C@@H]2O3)CC1 (stereo partly shown) [Compound 113]
- plasma concentration of 113 ([5]; male, SD, po, 2 hr): 2.15 ng/mL
- concentration at 2 hr ([5]; male, SD, po, plasma concentration of 113): 2.15 ng/mL
- AUC(0-t) ([5]; male, Sprague-Dawley, iv): 155 ng·h/mL
- Tmax ([5]; male, Sprague-Dawley, iv): 15 min
- AUC(0-t) ([5]; male, Sprague-Dawley, po): 15.7 ng·h/mL
- AUC(0-t) of 113 ([5]; male, Sprague-Dawley, po): 15.7 ng·h/mL
- Cmax ([5]; male, Sprague-Dawley, po): 17.7 ng/mL
- F of 113 ([5]; male, Sprague-Dawley, po): 10.1%
- Tmax ([5]; male, Sprague-Dawley, po): 15 min
- clinical symptoms [5]: No abnormal clinical symptom was observed
- AUC(0-last) in brain ([5]; iv): 47.5 ng·h/g
- AUC(0-last) in liver ([5]; iv): 28.1 ng·h/g
